System: rat model of pulmonary hypertension induced by monocrotaline
Test: Rat model of pulmonary hypertension induced by monocrotaline
Type: in vivo
Details: for reduction of TNF-α levels compared with the MCT model: 25 mg/kg; for RV/(LV + S): MCT model 0.45 ± 0.03; for TNF-α in lung tissue: MCT model 0.94 ± 0.07; for mPAP: MCT model 33.7 ± 4.3; for small pulmonary artery lesions compared with the model group (histopathology, H&E): treatment groups
Method: The preventive effect of the compounds of the present invention (as exemplified by compound 1-1 obtained in Example 1) on pulmonary hypertension was determined using a rat model of pulmonary hypertension induced by monocrotaline. The method was as follows:
Grouping of animals: 70 male SD rats with weigh of 200±20 g were randomly divided into 7 groups, i.e., a normal control group, a monocrotaline (MCT) model group, a treatment group of low-dose compound 1-1 (10 mg/kg) (MCT), a treatment group of medium-dose compound 1-1 (25 mg/kg) (MCT), a treatment group of high-dose compound 1-1 (50 mg/kg) (MCT), a treatment group of medium-dose indole analogue 3-[(1-methyl-1H-indole-2-carbonyl)amino]propionic acid (25 mg/kg) disclosed in CN2019107285315 (MCT), and a sildenafil group (150 mg/kg) (MCT), with 10 rats in each group.
Experimental procedure: MCT was prepared as a 2% solution with a mixture of ethanol and saline (2:8) and the solution was injected intraperitoneally once at a dose of 60 mg/kg body weight in all groups except the normal control group. Each rat in the normal control group was injected intraperitoneally once with a solution prepared from ethanol and saline in a volume ratio of 2:8. Compound 1-1 obtained in Example 1, the indole analogue 3-[(1-methyl-1H-indole-2-carbonyl)amino]propionic acid disclosed in CN2019107285315, or the positive drug sildenafil was administered by gavage to the mice in the treatment groups on the day of modelling, and saline was administered by gavage to the mice in the normal control group and the MCT model group. The drugs were administered by gavage once a day for 28 days until 12 hours before test.
Determination of hemodynamic indexes: a polyethylene plastic microcatheter filled with heparin solution (0.9% sodium chloride solution+10 U/mL heparin) was inserted into the right external jugular vein of a rat, and the other end of the microcatheter was connected to a miniature pressure transducer to monitor the pressure changes. […] After 30 minutes of stabilization, the POWERLAB multi-channel intelligent physiological signal acquisition and recording system was applied to acquire, record and analyze the indexes.
Determination of the index of right ventricular (RV) hypertrophy: at the end of the experiment, the heart was removed by dissection of the thorax and the atrial tissue was cut off. The right ventricle (RV), left ventricle (LV), and interventricular septum (S) were isolated along the edge of the interventricular septum, and the RV, LV, and S were weighed after absorbing water with filter paper and the ratio RV/(LV+S) was used to reflect the degree of RV hypertrophy.
Pathological examination of pulmonary vessels: tissue blocks were taken from the same site in the lower lobe of the right lung and fixed in 10% neutral formaldehyde (pH=7.4) for 2 days. Routine paraffin embedding, serial sections, H&E staining and light microscopy were performed to observe morphological changes in small pulmonary arteries.
Effect on inflammatory factors in lung tissue: Lung tissues were collected from each group of rats, homogenates of lung tissue were prepared and centrifuged and supernatants were collected. The protein level in the supernatant was determined by Coomassie brilliant blue method, and tumor necrosis factor-α (TNF-α) in rats was determined by an ELISA kit (Beijing 4A Biotech Co., Ltd.). […]

[1] = MCT + 25 mg/kg gavage once a day 28 days

Row | Structure (SMILES) | reduction of TNF-α levels compared with the MCT model | RV/(LV + S) (MCT + 25 mg/kg gavage 28 days) | TNF-α in lung tissue (MCT + 25 mg/kg gavage 28 days) | mPAP [1] | small pulmonary artery lesions compared with the model group (histopathology, H&E) | RV/(LV + S) (MCT + 10 mg/kg gavage 28 days) | TNF-α in lung tissue (MCT + 10 mg/kg gavage 28 days) | mPAP (MCT + 10 mg/kg gavage once a day 28 days) | RV/(LV + S) (MCT + 50 mg/kg gavage 28 days) | TNF-α in lung tissue (MCT + 50 mg/kg gavage 28 days) | mPAP (MCT + 50 mg/kg gavage once a day 28 days)
1 | Cn1c(C(=O)NCCC(=O)O)cc2ccccc21 [3-[(1-methyl-1H-indole-2-carbonyl)amino]propionic acid, reference compound] | 37.2% | 0.38 ± 0.04 | 0.59 ± 0.07 g/g protein | 28.9 ± 3.4 mmHg | significantly reduced | – | – | – | – | – | –
2 | CC(=O)OCCCNC(=O)c1c(C=O)c2ccccc2n1C [compound 1-1, propyl 3-[(3-formyl-1-methyl-1H-indole-2-carbonyl)amino]acetate] | 58.5% | 0.31 ± 0.04 | 0.39 ± 0.05 g/g protein | 25.8 ± 2.5 mmHg | significantly reduced | 0.37 ± 0.04 | 0.65 ± 0.08 g/g protein | 26.0 ± 2.8 mmHg | 0.28 ± 0.03 | 0.34 ± 0.05 g/g protein | 20.3 ± 3.0 mmHg

Source: patent US12692232B2, “Indole carboxamide compound, preparation therefor and use thereof” (NANJING RUISHUNING MEDICAL TECHNOLOGY CO., LTD., priority 2021, dated 2026)
